The values that follow come from ChEMBL document CHEMBL1201862, “PubChem BioAssay data set” (2004).

Holding throughout (experiment): growth of human tumour cells (NCI), 48 h
Test [1] relates to A549.
Test [2] relates to ACHN.
The subject of test [3] is EKVX.
Test [4] deals with HCT-15.
Test [5] concerns IGROV-1.
Test [6] relates to MCF7.
Test [7] has as its system MDA-MB-435.
Test [8] has as its system NCI-H522.
The test system of test [9] is OVCAR-3.
Test [10] relates to OVCAR-5.
In test [11] the test system is OVCAR-8.
Test [12] relates to RPMI-8226.
The test system of test [13] is RXF 393.
In test [14] the test system is SF-268.
Test [15] relates to SK-MEL-5.
For test [16], the system named is SW-620.
For test [17], the system named is U-251.
Test [18] concerns UO-31.
Test [19] relates to HCC 2998.
The test system of test [20] is SK-MEL-28.

Structures can show the parent of a compound that is named as a salt.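 Grown in 96-well plates, cells were treated for 48 hours with each compound at five concentrations. Insufficient inhibition: endpoint recorded as highest concentration tested. GI50 = concentration required for 50% inhibition of growth.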 Activity calls are given as the source filed them. Cut-off read from the data, not from the text of the source: active = GI50 up to about 1.1 µM and inactive = higher. Bounds are passed on as bounds.

For the compound `Cc1ccc2c(O)cc(-c3csc4ccccc34)nc2n1`, the GI50 in test [1] was 0.0164 µM (active); in [2] it was < 0.01 µM (active); in [3], 0.0344 µM (active); in [4], less than 0.0151 µM; in test [5] it was 0.0362 µM (active); in test [6], 0.0131 µM (active). Moreover, the GI50 in test [7] is < 0.01 µM (active); in test [8] it was < 0.01 µM (active); in test [9], < 0.01 µM (active); in [10] it was 0.0358 µM (active); in [11] it was 0.0202 µM (active); in test [12], < 0.01 µM (active). For the same compound, the GI50 in test [13] is < 0.01 µM (active); in test [14], 0.018 µM (active); in test [15], < 0.0112 µM (active); in [16], < 0.01 µM (active); in test [17], < 0.01 µM (active); in test [18] it was 0.0138 µM (active).

Regarding `COc1ccc(C2C(=O)c3c(OC)cc(OC)cc3OC2c2cccnc2)cc1` (stereo unspecified), the GI50 in [1] was > 100 µM (inactive); in test [2], > 100 µM (inactive); in [3], > 100 µM (inactive); in test [19], > 100 µM (inactive); in test [4], more than 100 µM; in test [5] it was > 100 µM (inactive). The GI50 in test [6] was > 100 µM (inactive); in test [7], 44.5 µM (inactive); in test [8] it was 35.8 µM (inactive); in test [9], > 100 µM (inactive); in test [10] it was > 100 µM (inactive); in test [11] it was > 100 µM (inactive). Further, the GI50 in test [13] was > 100 µM (inactive); in [14] it was > 100 µM (inactive); in [20] it was > 100 µM (inactive); in test [15], > 100 µM (inactive); in test [16], > 100 µM (inactive); in test [18] it was 32.2 µM (inactive).

`COc1cc(C(CN)N(C)C)cc(OC)c1OC` (stereo unspecified): the GI50 in test [1] is > 100 µM (inactive); in [2], > 100 µM (inactive); in test [3] it was > 100 µM (inactive); in [19], > 100 µM (inactive); in test [4], more than 100 µM; in test [5] it was > 100 µM (inactive). Besides, the GI50 in test [6], in [7], in [8], in test [9], in test [10] and in test [11] was > 100 µM (inactive) each time. Further, the GI50 in test [13], in test [14], in test [20], in [15], in test [16] and in [17] was > 100 µM (inactive) each time. In addition, the GI50 in test [18] is > 100 µM (inactive).

As for `CC(O)(Cc1ccccc1C#N)Cc1ccccc1C#N`, the GI50 in test [1] was > 100 µM (inactive); in [2] it was 88.5 µM (inactive); in [3], > 100 µM (inactive); in test [19] it was > 100 µM (inactive); in [4] it was 79.3 µM; in [5], > 100 µM (inactive). In addition, the GI50 was > 100 µM (inactive) in test [6]; > 100 µM (inactive) in test [7]; > 100 µM (inactive) in test [8]; 65.6 µM (inactive) in test [9]; > 100 µM (inactive) in test [10]; 54.7 µM (inactive) in test [11]. Moreover, the GI50 in [13] was > 100 µM (inactive); in test [14] it was > 100 µM (inactive); in [20], > 100 µM (inactive); in test [15] it was 57.3 µM (inactive); in [16], > 100 µM (inactive); in test [17] it was > 100 µM (inactive).

With `COC(NC(N)=O)C(=O)O` (stereo unspecified), the GI50 was > 100 µM (inactive) in [1]; > 100 µM (inactive) in [2]; > 100 µM (inactive) in [3]; more than 100 µM in test [4]; > 100 µM (inactive) in test [5]; > 100 µM (inactive) in test [6]. The GI50 in test [7], in test [8], in test [9], in [10], in test [11] and in [12] was > 100 µM (inactive) each time. The GI50 in test [13], in test [14], in test [20], in test [15], in test [16] and in [17] was > 100 µM (inactive) in each case. Besides, the GI50 in [18] is > 100 µM (inactive).

Regarding `CC(=O)OCc1ccc2c(c1)C(O)NC(=O)O2` (stereo unspecified), the GI50 in [1] was > 100 µM (inactive); in test [2], > 100 µM (inactive); in test [3], > 100 µM (inactive); in test [4] it was 44.3 µM; in test [5], > 100 µM (inactive); in test [6], 78.9 µM (inactive). In addition, the GI50 in [7] is > 100 µM (inactive); in [8], 68.7 µM (inactive); in test [9] it was 21.8 µM (inactive); in test [10], > 100 µM (inactive); in [11], > 100 µM (inactive); in test [12], 19.8 µM (inactive). Also, the GI50 is > 100 µM (inactive) in test [13]; > 100 µM (inactive) in [14]; > 100 µM (inactive) in test [20]; 72.9 µM (inactive) in [15]; 72.8 µM (inactive) in [16]; 58.6 µM (inactive) in test [17]. The GI50 in test [18] is > 100 µM (inactive).

For the compound `CC(=O)Oc1ccc(OC(Oc2ccccc2)c2ccccc2)cc1` (stereo unspecified), the GI50 was 37.5 µM (inactive) in [1]; 25.2 µM (inactive) in [2]; 41.6 µM (inactive) in test [3]; 14.7 µM (inactive) in test [19]; 33.9 µM in test [4]; 32.6 µM (inactive) in [5]. Besides, the GI50 is 35.4 µM (inactive) in test [6]; 32.4 µM (inactive) in [7]; 42.6 µM (inactive) in test [8]; 21.2 µM (inactive) in test [9]; 27.7 µM (inactive) in [10]; 37.9 µM (inactive) in [11]. For the same compound, the GI50 was 26.1 µM (inactive) in test [13]; 33 µM (inactive) in [14]; 26.2 µM (inactive) in test [20]; 38.6 µM (inactive) in [16]; 17.5 µM (inactive) in test [17]; 26.8 µM (inactive) in test [18].

On to `[O-][N+]1=NC(c2ccccc2)=C1c1ccccc1`, for which the GI50 in test [1] was > 50 µM (inactive); in test [2] it was > 50 µM (inactive); in [3], > 50 µM (inactive); in test [4] it was more than 50 µM; in test [5], > 50 µM (inactive); in test [6] it was > 50 µM (inactive). For the same compound, the GI50 in [7], in [8], in test [9], in test [10], in test [11] and in test [12] was > 50 µM (inactive) each time. Further, the GI50 in test [13], in test [14], in test [20], in [15], in test [16] and in [17] was > 50 µM (inactive) throughout. In addition, the GI50 in test [18] is > 50 µM (inactive).

Turning to `Clc1cc2nnn(C3CCCO3)c2cc1Cl` (stereo unspecified), the GI50 is > 100 µM (inactive) in test [1]; 66.1 µM (inactive) in [3]; > 100 µM (inactive) in [19]; more than 100 µM in test [4]; > 100 µM (inactive) in test [5]; > 100 µM (inactive) in test [6]. Moreover, the GI50 in test [7], in [8], in test [9], in test [10], in test [11] and in test [13] was > 100 µM (inactive) in each case. Further, the GI50 in test [14] is > 100 µM (inactive); in test [15], 75.3 µM (inactive); in [17] it was > 100 µM (inactive).

As for `CN/C(=N\CCSCc1nc[nH]c1C)NC#N` [CIMETIDINE], the GI50 is > 100 µM (inactive) in test [1]; > 100 µM (inactive) in [2]; > 10 µM (inactive) in test [3]; > 100 µM (inactive) in test [19]; more than 100 µM in test [4]; > 100 µM (inactive) in test [5]. The GI50 in test [6], in test [7], in [8], in test [9], in [10] and in test [11] was > 100 µM (inactive) in each case. In addition, the GI50 in [13], in test [14], in test [20], in test [15], in [16] and in test [17] was > 100 µM (inactive) in each case. In addition, the GI50 in [18] is > 100 µM (inactive).

With `CN1C[C@H](C(=O)N[C@]2(C)O[C@@]3(O)[C@@H]4CCCN4C(=O)[C@H](Cc4ccccc4)N3C2=O)C=C2c3cccc4[nH]cc(c34)C[C@H]21` [ERGOTAMINE TARTRATE], the GI50 in [1] was 37.8 µM (inactive); in [2], 21.8 µM (inactive); in [3] it was 30.8 µM (inactive); in test [4], 18.9 µM; in test [5] it was 20 µM (inactive); in test [6] it was 20.7 µM (inactive). Moreover, the GI50 was 15.9 µM (inactive) in [7]; 16.3 µM (inactive) in [8]; 18.3 µM (inactive) in test [9]; 20.2 µM (inactive) in [10]; 19.3 µM (inactive) in test [11]; 22.9 µM (inactive) in test [12]. Moreover, the GI50 in test [13] was 18 µM (inactive); in [14] it was 13.2 µM (inactive); in test [20], 17.1 µM (inactive); in test [15], 14.2 µM (inactive); in test [16] it was 23.4 µM (inactive); in test [17], 18.6 µM (inactive). Further, the GI50 in test [18] is 29.1 µM (inactive).
